According to patent publication US20140051918A1, “LAPAROSCOPIC GASTRIC BAND WITH ACTIVE AGENTS” (Allergan, Inc., priority 2009, published 2014):
Ends that are not written are not given here.

Assay: Patient examples: laparoscopic gastric band releasing an active agent, with weight loss, appetite and blood sugar control reported
Format: in vivo, human
Settings: 322 pounds; for weight lost by the patient: 5'11", within 12 months; for weight lost by the patient / appetite as reported by the patient: gastric band containing the agent, released to a goal plasma concentration over 3-24 months
From the text: (§1) A patient, having a body weight of 322 pounds and a height of 5′11″, complains to their physician that they have tried unsuccessfully to lose weight over the past 15 years and is concerned about the effect their excess weight may have on their health. […] A reservoir containing glucagon like peptide 1 (GLP-1), according to any of the embodiments of this application may also be utilized.
as §1, with “oxyntomodulin (OXM),” for “glucagon like peptide 1 (GLP-1),”, “utilized. An injection, liquid, pill, spray, inhalant, patch, or oral substance such as a gum containing oxyntomodulin (OXM) may also be used.” for “utilized.”
A patient, having a body weight of 322 pounds and a height of 5′11″, complains to their physician that they have tried unsuccessfully to lose weight over the past 15 years and is concerned about the effect their excess weight may have on their health.
as §1, with “Pancreatic Peptide (PP),” for “glucagon like peptide 1 (GLP-1),”, “utilized. An injection, liquid, pill, spray, inhalant, patch, or oral substance such as a gum containing Pancreatic Peptide (PP) may also be used.” for “utilized.”
as §1, with “Insulin,” for “glucagon like peptide 1 (GLP-1),”, “utilized. An injection, liquid, pill, spray, inhalant, patch, or oral substance such as a gum containing Insulin may also be used.” for “utilized.”
as §1, with “Leptin,” for “glucagon like peptide 1 (GLP-1),”, “utilized. An injection, liquid, pill, spray, inhalant, patch, or oral substance such as a gum containing Leptin may also be used. […] In the case of a female patient the goal plasma concentrations would be [10-20 ng/mL]p.” for “utilized.”
as §1, with “Amylin,” for “glucagon like peptide 1 (GLP-1),”, “utilized. An injection, liquid, pill, spray, inhalant, patch, or oral substance such as a gum containing Amylin may also be used.” for “utilized.”
as §1, with “Cholecystokinin (CCK),” for “glucagon like peptide 1 (GLP-1),”, “utilized. An injection, liquid, pill, spray, inhalant, patch, or oral substance such as a gum containing Cholecystokinin (CCK) may also be used.” for “utilized.”

| Molecule | weight lost by the patient [pounds] | appetite as reported by the patient | blood sugar control as reported by the patient (gastric band containing Insulin, released to plasma concentrations of 5-30 μU/mL over 3-24 months) |
| --- | --- | --- | --- |
| Pancreatic Peptide (APLEPVYPGDNATPEQMAQYAADLRRYINMLTRPRY; ends and bridges not checked; UniProt P01298 30-65, looked up) [PP, satiety inducing peptide hormone] | 58 | marked suppression of appetite | – |
| Insulin | – | – | euglycemic effects, or better control by their body of blood sugars |
| Amylin (KCNTATCATQRLANFLVHSSNNFGAILSSTNVGSNTY; not fully specified (C-terminus, bridges); cysteine pairing not given here; UniProt P10997 34-70, looked up) [satiety inducing peptide hormone] | 58 | marked suppression of appetite | – |
| glucagon like peptide 1 (HAEGTFTSDVSSYLEGQAAKEFIAWLVKGR; ends and bridges not checked; UniProt P01275 98-127, looked up) [GLP-1, satiety inducing peptide hormone] | 58 | marked suppression of appetite | – |
| PYY: satiety inducing peptide hormone [Peptide Y-Y] | 58 | marked suppression of appetite | – |
| oxyntomodulin [OXM] | 58 | marked suppression of appetite | – |
| Cocaine-Amphetamine Regulated Transcript [CART] | 58 | marked suppression of appetite | – |
| Leptin | 58 | marked suppression of appetite | – |
| Cholecystokinin (peptide, UniProt P06307 21-115, looked up, Cholecystokinin, hormone that suppresses appetite when administered with or without gastric distension) Cholecystokinin: QPVPPADPAGSGLQRAEEAPRRQLRVSQRTDGESRAHLGALLARYIQQARKAPSGRMSIVKNLQNLDPSHRISDRDYMGWMDFGRRSAEEYEYPS | 58 | marked suppression of appetite | – |
| Ciliary neuro-trophic factor (protein, UniProt P26441 1-200, looked up) Ciliary neurotrophic factor: MAFTEHSPLTPHRRDLCSRSIWLARKIRSDLTALTESYVKHQGLNKNINLDSADGMPVASTDQWSELTEAERLQENLQAYRTFHVLLARLLEDQQVHFTPTEGDFHQAIHTLLLQVAAFAYQIEELMILLEYKIPRNEADGMPINVGDGGLFEKKLWGLKVLQELSQWTVRSIHDLRFISSHQTGIPARGSHYIANNKKM | 58 | marked suppression of appetite | – |
